Experimental data published in US20130089641A1.
Like-named read-outs stand apart in the source and are kept apart here.

Assays:
[1] = NaVC consumption on ultra heat treat of the formulated soymilk powder; type: physicochemical
Text: As shown in Table (26), the formulated soymilk powder consists of NaVC (sodium vitamin C), lactic acid bacteria, saccharomycete, and maltodextrin, in which the lactic acid bacteria is NTU 101 lactic acid bacteria powder, the saccharomycete is yeast powder with vitamin B complex. Moreover, it must note that, when manufacturing the formulated soymilk powder, it must pre-add 25% NaVC in the formulated soymilk powder because there has 25% NaVC consumption when processing ultra heat treat of the formulated soymilk powder.

[2] = first experiment: in vitro digestion and dialysis of soymilk with ascorbic acid or calcium ascorbate, releasable iron; type: in vitro ADME
Text: For improving that, a first experiment in the present invention is done, that is, to respectively add the ascorbic acid and the calcium ascorbate into the soymilk and determine the concentration of the releasable iron thereof. Please refer to following Table (1), which is a statistical table of the releasable iron concentration in the soymilk.

[3] = fifth experiment: releasable iron in soymilk with 30 ppm ferrous gluconate and VC, NaVC, KVC or CaVC additive; type: in vitro ADME; settings: for average iron release rate / average relative release rate: soymilk with 30 ppm ferrous gluconate
Text: (§1) In which, “in vitro digestion and dialysis” is used in the experiments for determining the releasable iron in human body after the foods are digested.

[4] = second experiment: releasable iron in soymilk with iron salts added by concentration gradients; settings: for initially inhibiting concentration: point where releasable iron starts to rise with additive dosage
Text: as §1

[5] = aqueous solution of ferrous sulfate with 100 ppm iron ions
Text: as §1
Firstly, iron(II) sulfate heptahydrate is used as a standard in the experiment, and the in vitro digestion and dialysis of the iron(II) sulfate heptahydrate is done.

[6] = soymilk with 20 ppm iron as ferrous sulfate
Text: as §1
Next, in the second experiment, it respectively adds different additive dosage of vitamin C, sodium vitamin C, potassium vitamin C, and calcium vitamin C into the soymilk with 20 ppm ferrous sulfate for testing the effect of encouraging the release of iron ions.

[7] = sixth experiment: releasable iron in soymilk with 30 ppm ferrous gluconate and sodium isoascorbate additive; type: in vitro ADME; settings: soymilk with 30 ppm ferrous gluconate
Text: However, everyone knows that vitamin C includes a stereoisomer called isoascorbic acid, and the physical and chemical properties of the isoascorbic acid are similar to the vitamin C.

[8] = background, researches; cited from earlier work
[9] = average additive dosage of ascorbic acid ions 25 ppm
[10] = average additive dosage of ascorbic acid ions 50 ppm
[11] = average additive dosage of ascorbic acid ions 75 ppm
[12] = average additive dosage of ascorbic acid ions 100 ppm
[13] = average additive dosage of ascorbic acid ions 125 ppm
[14] = average additive dosage of ascorbic acid ions 150 ppm
[15] = average additive dosage of ascorbic acid ions 175 ppm
[16] = average additive dosage of ascorbic acid ions 200 ppm
[17] = average additive dosage of ascorbic acid ions 225 ppm
[18] = average additive dosage of ascorbic acid ions 250 ppm
[19] = average additive dosage of ascorbic acid ions 275 ppm
[20] = average additive dosage of ascorbic acid ions 300 ppm
[21] = average additive dosage of ascorbic acid ions 325 ppm
[22] = average additive dosage of ascorbic acid ions 350 ppm
[23] = average additive dosage of ascorbic acid ions 375 ppm
[24] = average additive dosage of ascorbic acid ions 400 ppm
[25] = average additive dosage of ascorbic acid ions 425 ppm
[26] = average additive dosage of ascorbic acid ions 450 ppm
[27] = average additive dosage of ascorbic acid ions 475 ppm
[28] = average additive dosage of ascorbic acid ions 500 ppm
[29] = sodium isoascorbate 28.6 mg/100 mL
[30] = sodium isoascorbate 57.1 mg/100 mL
[31] = sodium isoascorbate 85.7 mg/100 mL
[32] = sodium isoascorbate 114.3 mg/100 mL
[33] = sodium isoascorbate 142.9 mg/100 mL
[34] = sodium isoascorbate 171.4 mg/100 mL
[35] = sodium isoascorbate 200.0 mg/100 mL
[36] = sodium isoascorbate 228.6 mg/100 mL
[37] = sodium isoascorbate 257.1 mg/100 mL
[38] = sodium isoascorbate 285.7 mg/100 mL
[39] = sodium isoascorbate 314.3 mg/100 mL
[40] = sodium isoascorbate 342.9 mg/100 mL
[41] = sodium isoascorbate 371.4 mg/100 mL
[42] = sodium isoascorbate 400.0 mg/100 mL
[43] = sodium isoascorbate 428.6 mg/100 mL
[44] = sodium isoascorbate 457.1 mg/100 mL
[45] = sodium isoascorbate 485.7 mg/100 mL
[46] = sodium isoascorbate 514.3 mg/100 mL
[47] = sodium isoascorbate 542.9 mg/100 mL
[48] = sodium isoascorbate 571.4 mg/100 mL
[49] = soymilk, equivalent additive dosage 175 mg/100 mL
[50] = soymilk with 30 ppm iron as ferrous gluconate

## O=C1O[C@H]([C@@H](O)CO)C([O-])=C1O.[Na+] [NaVC, sodium ascorbate]
[1]
  NaVC consumption when processing ultra heat treat: 25%

## O=C1O[C@H]([C@@H](O)CO)C(O)=C1O [VC, ascorbic acid]
[2]; 75 mg/100 mL
  iron release rate: 51.75%
  relative release rate: 102.7%
  releasable iron: 2.07 ppm
[2]; 175 mg/100 mL
  iron release rate: 78.75%
  relative release rate: 156.28%
  releasable iron: 3.15 ppm

## O=C1O[C@H]([C@@H](O)CO)C(O)=C1O [ascorbic acid ions]
[3]; [9]
  average iron release rate: 16.90%
  average relative release rate: 33.55%
[3]; [10]
  average iron release rate: 23.17%
  average relative release rate: 45.97%
[3]; [11]
  average iron release rate: 27.88%
  average relative release rate: 55.33%
[3]; [12]
  average iron release rate: 32.08%
  average relative release rate: 63.67%
[3]; [13]
  average iron release rate: 33.35%
  average relative release rate: 66.18%
[3]; [14]
  average iron release rate: 34.92%
  average relative release rate: 69.30%
[3]; [15]
  average iron release rate: 35.85%
  average relative release rate: 71.14%
[3]; [16]
  average iron release rate: 36.86%
  average relative release rate: 73.15%
[3]; [17]
  average iron release rate: 38.23%
  average relative release rate: 75.86%
[3]; [18]
  average iron release rate: 39.40%
  average relative release rate: 78.18%
[3]; [19]
  average iron release rate: 40.57%
  average relative release rate: 80.51%
[3]; [20]
  average iron release rate: 42.29%
  average relative release rate: 83.93%
[3]; [21]
  average iron release rate: 43.63%
  average relative release rate: 86.59%
[3]; [22]
  average iron release rate: 44.67%
  average relative release rate: 88.66%
[3]; [23]
  average iron release rate: 45.61%
  average relative release rate: 90.52%
[3]; [24]
  average iron release rate: 46.28%
  average relative release rate: 91.85%
[3]; [25]
  average iron release rate: 47.22%
  average relative release rate: 93.72%
[3]; [26]
  average iron release rate: 47.86%
  average relative release rate: 94.99%
[3]; [27]
  average iron release rate: 48.99%
  average relative release rate: 97.23%
[3]; [28]
  average iron release rate: 50.01%
  average relative release rate: 99.24%

## O.O.O.O.O.O.O.O=S(=O)([O-])[O-].[Fe+2] [ferrous sulfate, iron(II) sulfate heptahydrate]
[4]; additive dosage of iron 10 ppm
  concentration of releasable iron: 1.56 ppm
[4]; additive dosage of iron 20 ppm
  concentration of releasable iron: 1.76 ppm
[4]; additive dosage of iron 30 ppm
  concentration of releasable iron: 2.47 ppm
[4]; additive dosage of iron 40 ppm
  concentration of releasable iron: 2.62 ppm
[4]; additive dosage of iron 50 ppm
  concentration of releasable iron: 2.75 ppm
[4]; additive dosage of iron 60 ppm
  concentration of releasable iron: 3.27 ppm
[4]; additive dosage of iron 70 ppm
  concentration of releasable iron: 3.72 ppm
[4]
  initially inhibiting concentration: 20 ppm
[5]
  iron ions naturally inhibited: 49.61%
  iron ions released after processing by gastric and intestinal fluid: 50.39%
[6]
  releasable iron concentration before adding the ascorbic acid iron: 1.90 ppm
  the most effective additive dosage for ascorbic acid iron: 100 mg/100 ml
[6]; after/before adding the ascorbic acid iron
  release promoting rate of iron: 389%
[6]; at the most effective additive dosage 100
  releasable iron concentration after adding the ascorbic acid iron: 7.54 ppm

## O=C1O[C@H]([C@H](O)CO)C(O)=C1O [isoascorbic acid ions]
[7]; sodium isoascorbate additive
  release promoting rate for iron compared with ascorbic acid ions: almost the same

## O=C1O[C@H]([C@H](O)CO)C([O-])=C1O.[Na+] [sodium isoascorbate]
[7]; [29]
  iron release rate: 23.37%
  relative release rate: 46.37%
  releasable iron concentration: 7.01 ppm
[7]; [30]
  iron release rate: 28.20%
  relative release rate: 55.96%
  releasable iron concentration: 8.46 ppm
[7]; [31]
  iron release rate: 33.67%
  relative release rate: 66.81%
  releasable iron concentration: 10.10 ppm
[7]; [32]
  iron release rate: 34.23%
  relative release rate: 67.94%
  releasable iron concentration: 10.27 ppm
[7]; [33]
  iron release rate: 36.17%
  relative release rate: 71.77%
  releasable iron concentration: 10.85 ppm
[7]; [34]
  iron release rate: 38.73%
  relative release rate: 76.87%
  releasable iron concentration: 11.62 ppm
[7]; [35]
  iron release rate: 41.53%
  relative release rate: 82.42%
  releasable iron concentration: 12.46 ppm
[7]; [36]
  iron release rate: 41.90%
  relative release rate: 83.15%
  releasable iron concentration: 12.57 ppm
[7]; [37]
  iron release rate: 43.20%
  relative release rate: 85.73%
  releasable iron concentration: 12.96 ppm
[7]; [38]
  iron release rate: 45.80%
  relative release rate: 90.89%
  releasable iron concentration: 13.74 ppm
[7]; [39]
  iron release rate: 46.30%
  relative release rate: 91.88%
  releasable iron concentration: 13.89 ppm
[7]; [40]
  iron release rate: 47.77%
  relative release rate: 94.79%
  releasable iron concentration: 14.33 ppm
[7]; [41]
  iron release rate: 48.60%
  relative release rate: 96.45%
  releasable iron concentration: 14.58 ppm
[7]; [42]
  iron release rate: 48.73%
  relative release rate: 96.71%
  releasable iron concentration: 14.62 ppm
[7]; [43]
  iron release rate: 49.30%
  relative release rate: 97.84%
  releasable iron concentration: 14.79 ppm
[7]; [44]
  iron release rate: 49.23%
  relative release rate: 97.70%
  releasable iron concentration: 14.77 ppm
[7]; [45]
  iron release rate: 49.60%
  relative release rate: 98.43%
  releasable iron concentration: 14.88 ppm
[7]; [46]
  iron release rate: 49.90%
  relative release rate: 99.03%
  releasable iron concentration: 14.97 ppm
[7]; [47]
  iron release rate: 50.90%
  relative release rate: 101.01%
  releasable iron concentration: 15.27 ppm
[7]; [48]
  iron release rate: 50.37%
  relative release rate: 99.95%
  releasable iron concentration: 15.11 ppm

## calcium ascorbate [CaVC]
[2]; [49]
  iron release rate: 48.75%
  releasable iron: 1.95 ppm
[2]; soymilk, equivalent additive dosage 175 mg/100 mL, relative to ferrous sulfate aqueous solution
  relative release rate: 96.75%

## ferrous gluconate
[4]; additive dosage of iron 10 ppm
  concentration of releasable iron: 1.61 ppm
[4]; additive dosage of iron 20 ppm
  concentration of releasable iron: 2.05 ppm
[4]; additive dosage of iron 30 ppm
  concentration of releasable iron: 2.08 ppm
[4]; additive dosage of iron 40 ppm
  concentration of releasable iron: 2.68 ppm
[4]; additive dosage of iron 50 ppm
  concentration of releasable iron: 3.15 ppm
[4]; additive dosage of iron 60 ppm
  concentration of releasable iron: 4.06 ppm
[4]; additive dosage of iron 70 ppm
  concentration of releasable iron: 3.98 ppm
[4]; additive dosage of iron 75 ppm
  concentration of releasable iron: 3.87 ppm
[4]
  initially inhibiting concentration: 30 ppm
[3]; [50]
  releasable iron concentration before adding the ascorbic acid iron: 2.08 ppm
  the most effective additive dosage for ascorbic acid iron: 50 mg/100 ml
[3]; soymilk with 30 ppm iron as ferrous gluconate, after/before adding the ascorbic acid iron
  release promoting rate of iron: 458%
[3]; soymilk with 30 ppm iron as ferrous gluconate, at the most effective additive dosage 50
  releasable iron concentration after adding the ascorbic acid iron: 9.53 ppm

## heme iron
[8]
  average absorption rate: 25%
